Assays:
Erythropoietin (EPO) = Erythropoietin (EPO) induction in normal mice; format: in vivo; conditions: male C57BL/6 mice, oral suspension in 0.5% CMC, serum 6 hours after dosing
Procedure: Eight-week-old male C57BL/6 mice were dosed orally with a suspension of one crystal form of the compound in 0.5% CMC at 20, 60 and 100 mg/kg. Blood samples were obtained from the orbital venous plexus 6 hours after dosing and serum was collected (see also, Robinson A, et al., Gastroenterology. 2008, 134:145-55; Hsieh M M, et al., Blood. 2007, 110:2140-7). Samples were analyzed for EPO by electrochemiluminescence-based immunoassay (MSD) according to manufacturer's instructions. The inducted EPOs when the Crystalline Form VI in this invention was used in suspension were determined to be around 6, 297 and above 300 folds over that of the vehicle group without induction.

[1] = Stability determination of crystal forms (competitive slurry in isopropyl acetate); format: physicochemical; conditions: Forms IV and VI stirred together in isopropyl acetate solution of compound of Formula I, room temperature, 36 hrs; resulted crystal form purely Form VI
Procedure: 9.6 mg of the Crystalline Form IV and 1.97 mg of the Crystalline Form VI disclosed in this invention were then added into the solution and stirred at room temperature for 36 hrs. After centrifugation and drying, the resulted crystal form was determined to be purely the Crystalline Form VI.

Cc1nc(C(=O)NCC(=O)O)c(O)c2ccc(Oc3ccccc3)cc12 [Crystalline Form VI]
inducted EPO over that of the vehicle group (Erythropoietin (EPO); 20 mg/kg): around 6 folds | inducted EPO over that of the vehicle group (Erythropoietin (EPO); 60 mg/kg): ~297 folds | inducted EPO over that of the vehicle group (Erythropoietin (EPO); 100 mg/kg): above 300 folds | thermodynamic stability of crystal form [1]: thermodynamically the most stable crystal form

— patent US9206134B2, “Polymorphic forms of compounds as prolyl hydroxylase inhibitor, and uses thereof” (BEIJING BETTA PHARMACEUTICALS CO. LTD., priority 2011, dated 2015)
